Reference: ChEMBL document CHEMBL1201862, “PubChem BioAssay data set” (2004)
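Following 48 hours of exposure in 96-well plates, responses at five concentrations were used to interpolate endpoints linearly. Here, GI50 denotes the concentration required for 50% inhibition of growth.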 Activity calls are given as the source filed them. No stated cut-off is given here; in the data, active = GI50 up to about 1.1 µM and inactive = higher.

Legend:
Experiment in all cases: DTP human tumour cell line panel, 48 h
COLO 205 = system: COLO 205
OVCAR-5 = system: OVCAR-5
UO-31 = system: UO-31
HOP-62 = system: HOP-62
OVCAR-3 = system: OVCAR-3
MOLT-4 = system: MOLT-4
NCI-H23 = system: NCI-H23
HCT-116 = system: HCT-116
LOX IMVI = system: LOX IMVI
U-251 = system: U-251
RXF 393 = system: RXF 393
K562 = system: K562
UACC-257 = system: UACC-257
TK-10 = system: TK-10
SF-295 = system: SF-295
EKVX = system: EKVX
CCRF-CEM = system: CCRF-CEM
NCI-H522 = system: NCI-H522
SN12C = system: SN12C
SW-620 = system: SW-620

| SMILES | GI50 (COLO 205) | GI50 (OVCAR-5) | GI50 (UO-31) | GI50 (HOP-62) | GI50 (OVCAR-3) | GI50 (MOLT-4) | GI50 (NCI-H23) | GI50 (HCT-116) | GI50 (LOX IMVI) | GI50 (U-251) | GI50 (RXF 393) | GI50 (K562) | GI50 (UACC-257) | GI50 (TK-10) | GI50 (SF-295) | GI50 (EKVX) | GI50 (CCRF-CEM) | GI50 (NCI-H522) | GI50 (SN12C) | GI50 (SW-620) |
| --- | --- | --- | --- | --- | --- | --- | --- | --- | --- | --- | --- | --- | --- | --- | --- | --- | --- | --- | --- | --- |
| CC1C(NNC(N)=O)Oc2cc3c(cc2C1c1ccccc1O)OCO3 (stereo not drawn) | > 10 µM (inactive) | > 100 µM (inactive) | 52.5 µM (inactive) | 31.3 µM (inactive) | 33.1 µM (inactive) | 30 µM (inactive) | 89.9 µM (inactive) | 26.2 µM (inactive) | 46.7 µM (inactive) | 38.7 µM (inactive) | 23.8 µM (inactive) | 22.2 µM (inactive) | 35.7 µM (inactive) | 46 µM (inactive) | 27 µM (inactive) | 66.8 µM (inactive) | 15.6 µM (inactive) | 14.8 µM (inactive) | 48.3 µM (inactive) | 16.6 µM (inactive) |
| CC1(C)C(=O)/C=C\C(=O)C(C)(C)C2=CC=C(O2)C(C)(C)C(=O)C(Br)C(Br)C(=O)C(C)(C)C2=CC=C1O2 (stereo not drawn) | > 81.8 µM (inactive) | > 100 µM (inactive) | > 92.3 µM (inactive) | > 100 µM (inactive) | 29.9 µM (inactive) | 3.3 µM (inactive) | 48.5 µM (inactive) | 17.9 µM (inactive) | 23 µM (inactive) | 41.4 µM (inactive) | 31.3 µM (inactive) | 5.19 µM (inactive) | 83.8 µM (inactive) | > 100 µM (inactive) | > 100 µM (inactive) | > 100 µM (inactive) | 1.93 µM (inactive) | 21.8 µM (inactive) | > 80 µM (inactive) | 7.4 µM (inactive) |
| Cc1ccc(S(=O)(=O)NNC2Oc3cc4c(cc3C(c3ccccc3O)C2C)OCO4)cc1 (stereo not drawn) | 14.7 µM (inactive) | 16.1 µM (inactive) | 11 µM (inactive) | 15.1 µM (inactive) | 11.4 µM (inactive) | 10.4 µM (inactive) | 15.7 µM (inactive) | 10.4 µM (inactive) | 15.2 µM (inactive) | 10.3 µM (inactive) | 4.22 µM (inactive) | 11.1 µM (inactive) | 10.8 µM (inactive) | 15.5 µM (inactive) | 11.6 µM (inactive) | 10.7 µM (inactive) | 10.2 µM (inactive) | 12.4 µM (inactive) | 15.3 µM (inactive) | 13.7 µM (inactive) |
| [C-]#[N+]C(=C\c1ccc(O)cc1)/C(=C/c1ccc(O)cc1)[N+]#[C-] [XANTOCILLIN] | 20.1 µM (inactive) | 4.94 µM (inactive) | 1.48 µM (inactive) | 3.21 µM (inactive) | 2.33 µM (inactive) | 1.57 µM (inactive) | 2.31 µM (inactive) | 0.6 µM (active) | 1.64 µM (inactive) | 1.57 µM (inactive) | 1.85 µM (inactive) | 0.465 µM (active) | 2.53 µM (inactive) | 3.01 µM (inactive) | 4.02 µM (inactive) | 2.06 µM (inactive) | 0.76 µM (active) | 3.14 µM (inactive) | 2.06 µM (inactive) | 1.14 µM (inactive) |
| C=C1C(=O)OC2/C=C(\C)CC/C=C(/C)CC(OC(=O)/C(=C/CO)CO)C12 (stereo not drawn) | 16.9 µM (inactive) | 18.7 µM (inactive) | 17 µM (inactive) | > 100 µM (inactive) | 25.2 µM (inactive) | 25.6 µM (inactive) | 18.2 µM (inactive) | > 10 µM (inactive) | 23.4 µM (inactive) | 20.9 µM (inactive) | 11 µM (inactive) | 30 µM (inactive) | 16.4 µM (inactive) | 15.7 µM (inactive) | 93.5 µM (inactive) | > 10 µM (inactive) | 6.43 µM (inactive) | 17.1 µM (inactive) | – | 21.4 µM (inactive) |
| NC1C2C=CC(C2)C1C(=O)O (stereo not drawn) | > 100 µM (inactive) | > 100 µM (inactive) | > 100 µM (inactive) | > 100 µM (inactive) | > 100 µM (inactive) | > 100 µM (inactive) | > 100 µM (inactive) | > 100 µM (inactive) | > 100 µM (inactive) | > 100 µM (inactive) | > 100 µM (inactive) | > 100 µM (inactive) | – | > 100 µM (inactive) | > 100 µM (inactive) | > 100 µM (inactive) | > 100 µM (inactive) | > 100 µM (inactive) | > 100 µM (inactive) | > 100 µM (inactive) |
| NC(CCOCCP(=O)(O)CCC1C=CC=CC1)C(=O)O (stereo not drawn) | > 100 µM (inactive) | > 100 µM (inactive) | > 100 µM (inactive) | – | > 100 µM (inactive) | > 100 µM (inactive) | > 100 µM (inactive) | > 100 µM (inactive) | 73.5 µM (inactive) | > 100 µM (inactive) | > 100 µM (inactive) | > 100 µM (inactive) | > 100 µM (inactive) | > 100 µM (inactive) | > 100 µM (inactive) | > 100 µM (inactive) | > 100 µM (inactive) | > 100 µM (inactive) | > 100 µM (inactive) | > 100 µM (inactive) |
| Cc1cc2nc3c(C)c4ccccc4c(C)n3c2cc1C | 2.15 µM (inactive) | 2.48 µM (inactive) | – | 2.19 µM (inactive) | 1.95 µM (inactive) | 2.39 µM (inactive) | 2.67 µM (inactive) | 1.01 µM (active) | 0.857 µM (active) | 3.33 µM (inactive) | 2.84 µM (inactive) | 5.21 µM (inactive) | 3.36 µM (inactive) | 5.27 µM (inactive) | 2.59 µM (inactive) | 5 µM (inactive) | 3.84 µM (inactive) | 2.51 µM (inactive) | 2.07 µM (inactive) | 2.49 µM (inactive) |
| Cn1c(=O)ccc2c(=O)c3ccccc3oc21 | > 100 µM (inactive) | > 100 µM (inactive) | 4.68 µM (inactive) | > 100 µM (inactive) | > 100 µM (inactive) | – | > 100 µM (inactive) | > 100 µM (inactive) | > 100 µM (inactive) | > 100 µM (inactive) | 64.9 µM (inactive) | > 100 µM (inactive) | – | > 100 µM (inactive) | > 100 µM (inactive) | > 100 µM (inactive) | > 100 µM (inactive) | > 100 µM (inactive) | > 100 µM (inactive) | > 100 µM (inactive) |
| CCN(CC)c1c(C)c(C(=O)OC)nn1-c1ccccc1 | > 100 µM (inactive) | > 100 µM (inactive) | 33 µM (inactive) | > 100 µM (inactive) | 60.5 µM (inactive) | 43.1 µM (inactive) | 33.6 µM (inactive) | 89.1 µM (inactive) | 86.5 µM (inactive) | 61.1 µM (inactive) | 33.3 µM (inactive) | 36.9 µM (inactive) | 31.2 µM (inactive) | – | > 83.6 µM (inactive) | > 81.1 µM (inactive) | 63.1 µM (inactive) | 63.8 µM (inactive) | > 100 µM (inactive) | > 100 µM (inactive) |
